Laboratory results as given in ChEMBL document CHEMBL5120756, “Mycobacterial Membranes as Actionable Targets for Lipid-Centric Therapy in Tuberculosis” (J Med Chem, 2022).

Test system: Salmonella typhimurium
Assay: Antibacterial activity against salmonella typhimurium infected in gentamicin-treated mouse RAW264.7 macrophages assessed as reduction of bacterial accumulation with macrophage measured after 17.5 hrs of post infection by SAFIRE assay
Assay type: functional, organism-based, Salmonella enterica subsp. enterica serovar Typhimurium
Conditions: Salmonella enterica, RAW264.7, 17.5 h

SMILES: OC(COc1ccc(C2C3CC4CC(C3)CC2C4)cc1)CN1CCCCC1 (stereo unspecified)
- IC50: 0.12 µM
